Measurements published in ChEMBL document CHEMBL3886234, “Isoform selective phospholipase D inhibitors” (2015).

Target: T1, Phospholipase D1 (Homo sapiens, UniProt Q13393)
T1 sequence (Q13393 whole entry): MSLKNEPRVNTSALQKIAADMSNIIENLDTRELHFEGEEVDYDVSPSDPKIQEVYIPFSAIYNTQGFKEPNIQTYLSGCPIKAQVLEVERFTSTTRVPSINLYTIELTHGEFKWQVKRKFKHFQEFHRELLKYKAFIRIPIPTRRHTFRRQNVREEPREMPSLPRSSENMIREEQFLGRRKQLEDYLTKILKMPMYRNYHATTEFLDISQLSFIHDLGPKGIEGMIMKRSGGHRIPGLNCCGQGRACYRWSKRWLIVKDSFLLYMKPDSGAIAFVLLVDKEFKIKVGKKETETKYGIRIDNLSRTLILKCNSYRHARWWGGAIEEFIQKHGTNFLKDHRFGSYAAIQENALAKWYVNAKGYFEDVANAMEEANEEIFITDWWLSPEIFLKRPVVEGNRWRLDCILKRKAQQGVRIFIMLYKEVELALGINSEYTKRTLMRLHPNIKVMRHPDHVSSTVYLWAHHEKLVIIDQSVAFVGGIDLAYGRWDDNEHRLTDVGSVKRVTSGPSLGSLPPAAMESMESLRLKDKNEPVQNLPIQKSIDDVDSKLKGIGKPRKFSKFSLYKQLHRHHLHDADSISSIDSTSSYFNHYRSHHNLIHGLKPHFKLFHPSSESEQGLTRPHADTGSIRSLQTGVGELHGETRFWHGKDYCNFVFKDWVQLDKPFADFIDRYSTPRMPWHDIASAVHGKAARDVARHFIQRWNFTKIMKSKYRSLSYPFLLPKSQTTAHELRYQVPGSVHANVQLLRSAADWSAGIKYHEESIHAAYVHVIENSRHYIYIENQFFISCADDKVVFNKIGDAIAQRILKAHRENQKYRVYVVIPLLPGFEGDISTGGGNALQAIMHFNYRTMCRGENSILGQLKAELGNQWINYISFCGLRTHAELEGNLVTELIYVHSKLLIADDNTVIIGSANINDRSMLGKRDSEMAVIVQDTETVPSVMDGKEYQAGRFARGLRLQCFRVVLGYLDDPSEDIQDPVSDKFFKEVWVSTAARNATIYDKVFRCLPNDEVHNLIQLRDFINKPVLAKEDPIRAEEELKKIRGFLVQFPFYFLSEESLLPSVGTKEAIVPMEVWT
Assay: Inhibition Assay: In one aspect, the compound inhibits PLD activity; that is, a compound can inhibit PLD1 activity and/or PLD2 activity. In a further aspect, the compound inhibits PLD1 response in Calu-1 cells. In a further aspect, the compound inhibits PLD2 response in HEK293gfpPLD2 cells. In a further aspect, the compound inhibits in vitro PLD1 response. In a further aspect, the compound …
Assay type: cell-based

C[C@@H](CN1CCC2(CC1)C(=O)NC[C@@H]2c1ccc(F)cc1)NC(=O)c1ccc(F)cc1 gave an IC50 of 1.2 µM.
